# According to PubChem BioAssay AID2060883 (Molecular Pharmacology Branch, DTP, NCI, 2025):
# System: 843782-103-R-J1-PDC complex spheroid viability
# Test: Anticancer human tumor 843782-103-R-J1-PDC patient-derived lung adenocarcinoma cell line growth inhibition [RAS]
# Details: for IC50: curve of first compound; for viability, T/C: stronger effect = lower value
# Outline: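 Agents were tested in combination matrices in half-log decrements from a top concentration at or near clinical Cmax (10 microM if undetermined). Targets were multi-cell spheroids of tumour lines plus HUVEC and MSC stromal cells.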
# 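Further: viability read after seven days of compound exposure.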
smiles,measurement,setting,value
C=CC(=O)N1CCN(c2nc(OCC3CCCN3C)nc3c(F)c(-c4nc(N)cc(C)c4C(F)(F)F)c(Cl)cc23)C(C)C1 (centres undefined) + CCn1c(-c2cccnc2C(C)OC)c2c3cc(ccc31)N1CCOC(CC(NC(=O)C(C(C)C)N(C)C(=O)C3(F)CCN(C(=O)C#CC(C)(C)N(C)C)CC3)C(=O)N3CCCC(N3)C(=O)OCC(C)(C)C2)C1,IC50,second compound 0.000949 µM,> 1000 nM
same,IC50,second compound 0.003 µM,> 1000 nM
same,IC50,second compound 0.00949 µM,> 1000 nM
same,IC50,second compound 0.03 µM,> 1000 nM
same,IC50,second compound 0.0949 µM,> 1000 nM
same,IC50,second compound 0.3 µM,> 1000 nM
same,"viability, T/C","second compound 0.000949 µM, first compound 0.00316 µM",80.5%
same,"viability, T/C","second compound 0.000949 µM, first compound 0.01 µM",67.2%
same,"viability, T/C","second compound 0.000949 µM, first compound 0.0316 µM",75.9%
same,"viability, T/C","second compound 0.000949 µM, first compound 0.1 µM",77.9%
same,"viability, T/C","second compound 0.000949 µM, first compound 0.316 µM",72.8%
same,"viability, T/C","second compound 0.000949 µM, first compound 1 µM",78.5%
same,"viability, T/C","second compound 0.003 µM, first compound 0.00316 µM",71.4%
same,"viability, T/C","second compound 0.003 µM, first compound 0.01 µM",69.3%
same,"viability, T/C","second compound 0.003 µM, first compound 0.0316 µM",77.7%
same,"viability, T/C","second compound 0.003 µM, first compound 0.1 µM",81.6%
same,"viability, T/C","second compound 0.003 µM, first compound 0.316 µM",78.3%
same,"viability, T/C","second compound 0.003 µM, first compound 1 µM",74.4%
same,"viability, T/C","second compound 0.00949 µM, first compound 0.00316 µM",63.6%
same,"viability, T/C","second compound 0.00949 µM, first compound 0.01 µM",62.4%
same,"viability, T/C","second compound 0.00949 µM, first compound 0.0316 µM",77.5%
same,"viability, T/C","second compound 0.00949 µM, first compound 0.1 µM",80.1%
same,"viability, T/C","second compound 0.00949 µM, first compound 0.316 µM",88.1%
same,"viability, T/C","second compound 0.00949 µM, first compound 1 µM",74.4%
same,"viability, T/C","second compound 0.03 µM, first compound 0.00316 µM",82.4%
same,"viability, T/C","second compound 0.03 µM, first compound 0.01 µM",71.6%
same,"viability, T/C","second compound 0.03 µM, first compound 0.0316 µM",71.5%
same,"viability, T/C","second compound 0.03 µM, first compound 0.1 µM",75.4%
same,"viability, T/C","second compound 0.03 µM, first compound 0.316 µM",82.5%
same,"viability, T/C","second compound 0.03 µM, first compound 1 µM",69.4%
same,"viability, T/C","second compound 0.0949 µM, first compound 0.00316 µM",81.6%
same,"viability, T/C","second compound 0.0949 µM, first compound 0.01 µM",75.9%
same,"viability, T/C","second compound 0.0949 µM, first compound 0.0316 µM",77.6%
same,"viability, T/C","second compound 0.0949 µM, first compound 0.1 µM",79.7%
same,"viability, T/C","second compound 0.0949 µM, first compound 0.316 µM",77.7%
same,"viability, T/C","second compound 0.0949 µM, first compound 1 µM",77%
same,"viability, T/C","second compound 0.3 µM, first compound 0.00316 µM",65.4%
same,"viability, T/C","second compound 0.3 µM, first compound 0.01 µM",69.2%
same,"viability, T/C","second compound 0.3 µM, first compound 0.0316 µM",61.2%
same,"viability, T/C","second compound 0.3 µM, first compound 0.1 µM",70.7%
same,"viability, T/C","second compound 0.3 µM, first compound 0.316 µM",68%
same,"viability, T/C","second compound 0.3 µM, first compound 1 µM",69.6%
CC1(C)CCC(Nc2ncc(C(F)(F)F)c(-c3c[nH]c4c(P(C)(C)=O)c(C#N)ccc34)n2)CN1 (centres undefined) + CCn1c(-c2cccnc2C(C)OC)c2c3cc(ccc31)N1CCOC(CC(NC(=O)C(C(C)C)N(C)C(=O)C3(F)CCN(C(=O)C#CC(C)(C)N(C)C)CC3)C(=O)N3CCCC(N3)C(=O)OCC(C)(C)C2)C1,IC50,second compound 0.000949 µM,2.53 nM
same,IC50,second compound 0.003 µM,2.29 nM
same,IC50,second compound 0.00949 µM,3.46 nM
same,IC50,second compound 0.03 µM,3.86 nM
same,IC50,second compound 0.0949 µM,2.63 nM
same,IC50,second compound 0.3 µM,1.67 nM
same,"viability, T/C","second compound 0.000949 µM, first compound 0.000949 µM",78.2%
same,"viability, T/C","second compound 0.000949 µM, first compound 0.003 µM",45.2%
same,"viability, T/C","second compound 0.000949 µM, first compound 0.00949 µM",29.4%
same,"viability, T/C","second compound 0.000949 µM, first compound 0.03 µM",26.6%
same,"viability, T/C","second compound 0.000949 µM, first compound 0.0949 µM",22.9%
same,"viability, T/C","second compound 0.000949 µM, first compound 0.3 µM",21.8%
same,"viability, T/C","second compound 0.003 µM, first compound 0.000949 µM",59.9%
same,"viability, T/C","second compound 0.003 µM, first compound 0.003 µM",46.3%
same,"viability, T/C","second compound 0.003 µM, first compound 0.00949 µM",32.3%
same,"viability, T/C","second compound 0.003 µM, first compound 0.03 µM",21%
same,"viability, T/C","second compound 0.003 µM, first compound 0.0949 µM",17.9%
same,"viability, T/C","second compound 0.003 µM, first compound 0.3 µM",19.4%
same,"viability, T/C","second compound 0.00949 µM, first compound 0.000949 µM",59.6%
same,"viability, T/C","second compound 0.00949 µM, first compound 0.003 µM",51.8%
same,"viability, T/C","second compound 0.00949 µM, first compound 0.00949 µM",34%
same,"viability, T/C","second compound 0.00949 µM, first compound 0.03 µM",20.2%
same,"viability, T/C","second compound 0.00949 µM, first compound 0.0949 µM",19.5%
same,"viability, T/C","second compound 0.00949 µM, first compound 0.3 µM",19%
same,"viability, T/C","second compound 0.03 µM, first compound 0.000949 µM",62.9%
same,"viability, T/C","second compound 0.03 µM, first compound 0.003 µM",55.1%
same,"viability, T/C","second compound 0.03 µM, first compound 0.00949 µM",33%
same,"viability, T/C","second compound 0.03 µM, first compound 0.03 µM",22.6%
same,"viability, T/C","second compound 0.03 µM, first compound 0.0949 µM",18.8%
same,"viability, T/C","second compound 0.03 µM, first compound 0.3 µM",18%
same,"viability, T/C","second compound 0.0949 µM, first compound 0.000949 µM",69.3%
same,"viability, T/C","second compound 0.0949 µM, first compound 0.003 µM",46.8%
same,"viability, T/C","second compound 0.0949 µM, first compound 0.00949 µM",31.5%
same,"viability, T/C","second compound 0.0949 µM, first compound 0.03 µM",18.5%
same,"viability, T/C","second compound 0.0949 µM, first compound 0.0949 µM",17.3%
same,"viability, T/C","second compound 0.0949 µM, first compound 0.3 µM",17.6%
same,"viability, T/C","second compound 0.3 µM, first compound 0.000949 µM",57.7%
same,"viability, T/C","second compound 0.3 µM, first compound 0.003 µM",41.8%
same,"viability, T/C","second compound 0.3 µM, first compound 0.00949 µM",24.4%
same,"viability, T/C","second compound 0.3 µM, first compound 0.03 µM",15.5%
same,"viability, T/C","second compound 0.3 µM, first compound 0.0949 µM",13.6%
same,"viability, T/C","second compound 0.3 µM, first compound 0.3 µM",14.4%
